Reference: paper PMC6934184, “Selective DNA-PKcs inhibition extends the therapeutic index of localized radiotherapy and chemotherapy” (The Journal of Clinical Investigation, 2019)

Biological target: T1, KIT D816V (Homo sapiens, UniProt P10721, D816V)
T1 construct: purchased Thermo Fisher Scientific (Life Technologies) SelectScreen
Assay: SelectScreen LanthaScreen
Type: binding
Settings: read-out: % displacement
Summary of the method: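 Percent values come from Thermo SelectScreen profiling of NU5455, combining activity and binding assays. CSF1R was run in Z'LYTE format at Km app ATP, and CAMK1 in Adapta format with ATP listed at 10.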

T1 sequence (P10721 26-976 D816V): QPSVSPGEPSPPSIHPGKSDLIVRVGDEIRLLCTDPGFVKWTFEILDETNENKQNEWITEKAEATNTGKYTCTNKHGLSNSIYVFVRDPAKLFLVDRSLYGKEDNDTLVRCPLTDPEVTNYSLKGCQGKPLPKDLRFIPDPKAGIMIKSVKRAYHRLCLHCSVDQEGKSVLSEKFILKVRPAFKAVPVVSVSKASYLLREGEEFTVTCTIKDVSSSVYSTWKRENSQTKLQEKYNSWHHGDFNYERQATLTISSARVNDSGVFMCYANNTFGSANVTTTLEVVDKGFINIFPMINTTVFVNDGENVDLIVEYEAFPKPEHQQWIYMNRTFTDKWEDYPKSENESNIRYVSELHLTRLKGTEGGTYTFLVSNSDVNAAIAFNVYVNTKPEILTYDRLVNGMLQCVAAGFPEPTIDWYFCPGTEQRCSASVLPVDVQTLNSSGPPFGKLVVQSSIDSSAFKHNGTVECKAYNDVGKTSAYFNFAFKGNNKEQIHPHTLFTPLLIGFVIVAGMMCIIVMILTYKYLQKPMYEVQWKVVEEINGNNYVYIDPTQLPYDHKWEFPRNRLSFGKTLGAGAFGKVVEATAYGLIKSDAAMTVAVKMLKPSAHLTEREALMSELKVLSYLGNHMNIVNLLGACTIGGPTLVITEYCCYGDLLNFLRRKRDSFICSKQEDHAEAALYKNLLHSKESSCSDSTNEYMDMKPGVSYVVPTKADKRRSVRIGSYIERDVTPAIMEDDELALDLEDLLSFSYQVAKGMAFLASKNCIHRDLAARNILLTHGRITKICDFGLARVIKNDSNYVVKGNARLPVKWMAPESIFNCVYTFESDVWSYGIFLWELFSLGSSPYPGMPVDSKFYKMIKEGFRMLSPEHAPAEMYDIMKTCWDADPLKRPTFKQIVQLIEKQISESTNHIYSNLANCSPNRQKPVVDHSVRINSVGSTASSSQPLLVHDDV

CN(C(=O)CN1CCOCC1)c1ccc2sc3c(-c4cccc5c(=O)cc(N6CC7CCC(C6)O7)oc45)cccc3c2c1 [NU5455]
inhibition at 1 µM: 0.9%
